Data on four compounds can be found in publication PMC7785020, “A unique hormonal recognition feature of the human glucagon-like peptide-2 receptor” (Cell Research, 2020).

Numbering of substitutions follows the chain as printed. No end group written: not given here.

Assay type in all cases: cell-based
One experiment deals with T1, GLP-2R (1-553) (WT) (Homo sapiens, UniProt O95838).
T1 construct: GLP-2R (1-553) (WT); expressed in transfected cells; host or cells: HEK 293T
T1 sequence (O95838 1-553): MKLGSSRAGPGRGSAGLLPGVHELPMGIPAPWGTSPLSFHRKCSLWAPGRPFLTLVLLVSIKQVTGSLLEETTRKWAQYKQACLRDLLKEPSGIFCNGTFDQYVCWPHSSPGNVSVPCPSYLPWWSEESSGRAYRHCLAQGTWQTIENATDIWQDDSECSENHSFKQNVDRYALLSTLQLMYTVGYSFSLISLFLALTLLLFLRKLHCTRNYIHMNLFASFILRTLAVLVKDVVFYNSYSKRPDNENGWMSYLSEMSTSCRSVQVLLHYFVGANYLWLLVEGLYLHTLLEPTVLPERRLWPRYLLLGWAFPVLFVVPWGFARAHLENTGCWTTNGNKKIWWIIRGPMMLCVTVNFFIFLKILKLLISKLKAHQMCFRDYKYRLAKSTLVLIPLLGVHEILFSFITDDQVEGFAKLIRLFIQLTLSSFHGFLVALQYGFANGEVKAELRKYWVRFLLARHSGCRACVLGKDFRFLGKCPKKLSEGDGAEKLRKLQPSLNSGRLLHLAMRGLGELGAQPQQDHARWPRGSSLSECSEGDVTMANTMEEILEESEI
Kind of experiment: cAMP accumulation, WT GLP-2R. Conditions: 30 min, RT, mean ± SEM, n ≥ 3 in duplicate; for Emax: HEK-293T; for EC50: HEK 293T, read-out: cAMP pEC50 (converted). The protocol:
(§1) HEK 293T cells were cultured in Dulbecco’s Modified Eagle’s Medium (DMEM) (Gibco, Waltham, USA) supplemented with 10% (v/v) fetal bovine serum (FBS) (Gibco) and 1% (v/v) sodium pyruvate (Gibco) at 37 °C, 5% CO2 in a humidified incubator. They were seeded onto 6-well cell culture plates and transiently transfected with different GLP-2R constructs using Lipofectamine 2000 transfection reagent (Invitrogen, Carlsbad, CA, USA). After 24 h, the transfected cells were seeded onto 384-well microtiter plates (3000 cells per well) in HBSS supplemented with 5 mM HEPES, 0.1% (w/v) bovine serum albumin (BSA) and 0.5 mM 3-isobutyl-1- methylxanthine, and stimulated with increasing concentrations of GLP-2 for 30 min at RT. Eu and Ulight were diluted by cAMP detection buffer and added to the plates separately to terminate the reaction. Plates were incubated at RT for 60 min before measuring the fluorescence intensity at 620 nm and […] by an EnVision multilabel plate reader (PerkinElmer, Boston, USA).
(cAMP levels reflect the balance of adenylyl cyclase and phosphodiesterase activity.)

A further experiment concerns the target GLP-1R (WT) (Homo sapiens, UniProt P43220). Kind of experiment: cAMP accumulation, WT GLP-1R. Further details: expressed in transfected cells; host or cells: HEK 293T. Conditions: Table S5, GLP-1R (WT), HEK 293T, 30 min, RT, mean ± SEM, n ≥ 3 in duplicate; for EC50: read-out: cAMP pEC50 (converted).
A further experiment addresses T2, GLP-2R D244^ECL1A (Homo sapiens, UniProt O95838, D244A).
T2 sequence (O95838 1-553 D244A): T1 sequence (O95838 1-553) with D244A
Nature of the experiment: cAMP accumulation, D244^ECL1A. Further details: WT (1–553); expressed in transfected cells; HEK 293T (cAMP). Conditions: Table S5, D244A, HEK 293T, 30 min, RT, mean ± SEM, n ≥ 3 in duplicate; for Emax: read-out: cAMP Emax (% WT); for EC50: read-out: cAMP pEC50 (converted). The protocol: as §1

In a further experiment the target is T3, GLP-2R N247^ECL1A (Homo sapiens, UniProt O95838, N247A).
T3 sequence (O95838 1-553 N247A): T1 sequence (O95838 1-553) with N247A
Nature of the experiment: cAMP accumulation, N247^ECL1A. Conditions: Table S5, N247A, HEK 293T, 30 min, RT, mean ± SEM, n ≥ 3 in duplicate; for Emax: read-out: cAMP Emax (% WT); for EC50: read-out: cAMP pEC50 (converted). Further details: WT (1–553); expressed in transfected cells; HEK 293T (cAMP). How it is done:
as §1

Sequence of GLP-1R (WT) (P43220 24-463, species assumed): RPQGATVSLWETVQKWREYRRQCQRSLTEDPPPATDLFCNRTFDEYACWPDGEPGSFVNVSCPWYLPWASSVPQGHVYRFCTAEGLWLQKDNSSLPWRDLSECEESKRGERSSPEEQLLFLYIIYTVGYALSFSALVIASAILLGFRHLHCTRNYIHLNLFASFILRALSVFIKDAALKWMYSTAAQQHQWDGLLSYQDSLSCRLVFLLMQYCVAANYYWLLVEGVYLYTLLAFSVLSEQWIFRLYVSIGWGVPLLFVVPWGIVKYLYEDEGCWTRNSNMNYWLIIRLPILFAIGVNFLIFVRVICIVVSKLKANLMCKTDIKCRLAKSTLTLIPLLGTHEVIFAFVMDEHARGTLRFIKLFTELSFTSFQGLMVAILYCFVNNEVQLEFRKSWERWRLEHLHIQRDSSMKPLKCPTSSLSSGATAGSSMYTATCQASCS

Turning to “HAEGTFSDEMNTILDNLAARDFINWLIQTKITD [Chimeric GLP-1/GLP-2 (1-6)]”, the Emax on GLP-2R (1-553) (WT) (Table S5, GLP-2R (WT)) was determined as 103 ± 1.8%; at GLP-1R (WT), 7.1 ± 3.2%; on GLP-2R D244^ECL1A, 102 ± 2.5%; on GLP-2R N247^ECL1A it was 102 ± 1.8%. Further, the EC50 at GLP-2R (1-553) (WT) (Table S5, GLP-2R (WT)) is 0.158 nM; at GLP-1R (WT), 7.94 nM; on GLP-2R D244^ECL1A, 0.251 nM; on GLP-2R N247^ECL1A, 0.0398 nM.
As to `CC[C@H](C)[C@H](NC(=O)[C@H](Cc1ccccc1)NC(=O)[C@H](CC(=O)O)NC(=O)[C@H](CCCNC(=N)N)NC(=O)[C@H](C)NC(=O)[C@H](C)NC(=O)[C@H](CC(C)C)NC(=O)[C@H](CC(N)=O)NC(=O)[C@H](CC(=O)O)NC(=O)[C@H](CC(C)C)NC(=O)[C@@H](NC(=O)[C@@H](NC(=O)[C@H](CC(N)=O)NC(=O)[C@H](CCSC)NC(=O)[C@H](CCC(=O)O)NC(=O)[C@H](CC(=O)O)NC(=O)[C@H](CO)NC(=O)[C@H](Cc1ccccc1)NC(=O)[C@H](CO)NC(=O)CNC(=O)[C@H](CC(=O)O)NC(=O)[C@H](C)NC(=O)[C@@H](N)Cc1c[nH]cn1)[C@@H](C)O)[C@@H](C)CC)C(=O)N[C@@H](CC(N)=O)C(=O)N[C@@H](Cc1c[nH]c2ccccc12)C(=O)N[C@@H](CC(C)C)C(=O)N[C@H](C(=O)N[C@@H](CCC(N)=O)C(=O)N[C@H](C(=O)N[C@@H](CCCCN)C(=O)N[C@H](C(=O)N[C@H](C(=O)N[C@@H](CC(=O)O)C(=O)O)[C@@H](C)O)[C@@H](C)CC)[C@@H](C)O)[C@@H](C)CC` [Human GLP-2 (1–33)], the Emax at GLP-2R (1-553) (WT) (Table S3, WT) is 101 ± 2.4%; on GLP-2R (1-553) (WT) (Table S4, WT), 101 ± 2.9%; at GLP-2R (1-553) (WT) (Table S5, GLP-2R (WT)), 103 ± 1.6%; at GLP-1R (WT) it was 4 ± 3.1%; on GLP-2R D244^ECL1A it was 101 ± 2.8%; at GLP-2R N247^ECL1A it was 103 ± 1.8%. Also, at GLP-1R (WT), the EC50 is 5.01 nM.
Consider “HADGSFSDEMNTILDNLAAKEFIAWLVKGRG [Chimeric GLP-1/GLP-2 (20-33)]”, for which the Emax at GLP-2R (1-553) (WT) (Table S5, GLP-2R (WT)) was 104 ± 1.5%; on GLP-1R (WT), 112 ± 2.8%; on GLP-2R D244^ECL1A, 104 ± 1.8%; on GLP-2R N247^ECL1A it was 103 ± 1.8%. For the same compound, the EC50 on GLP-2R (1-553) (WT) (Table S5, GLP-2R (WT)) was 0.126 nM; at GLP-1R (WT), 3.16 nM; at GLP-2R D244^ECL1A, 0.251 nM; at GLP-2R N247^ECL1A, 0.0501 nM.
As to “HADGSFTSDVSSYLEGQAARDFINWLIQTKITD [Chimeric GLP-1/GLP-2 (7-19)]”, the maximal effect (Emax) at GLP-2R (1-553) (WT) (Table S5, GLP-2R (WT)) turned out to be 103 ± 2.6%; on GLP-1R (WT), 105 ± 2.4%; at GLP-2R D244^ECL1A it was 102 ± 1.8%; on GLP-2R N247^ECL1A, 102 ± 2.8%. Moreover, the EC50 on GLP-2R (1-553) (WT) (Table S5, GLP-2R (WT)) was 3.16 nM; on GLP-1R (WT), 0.0126 nM; at GLP-2R D244^ECL1A, 3.16 nM; at GLP-2R N247^ECL1A it was 1.26 nM.

What is called Emax is the size of the effect at its maximum, as opposed to the concentration needed.
